The source made the active and inactive calls. The rule behind the calls is not given here.
Tested on: CCRIS mutagenicity, Ames/micronucleus/aberration tests
Test: CCRIS mutagenicity studies
[1] = Test System: AMES SALMONELLA TYPHIMURIUM, Strain/Indicator: TA98, Metabolic Activation: NONE, Method: PREINCUBATION
[2] = Test System: AMES SALMONELLA TYPHIMURIUM, Strain/Indicator: TA100, Metabolic Activation: NONE, Method: PREINCUBATION

For `O=c1oc2cc([N+](=O)[O-])ccc2c2ccccc12`, the mutagenic call (Test System: AMES SALMONELLA TYPHIMURIUM, Strain/Indicator: TA98(1,8-DNP6), Metabolic Activation: NONE, Method: MICROSUSPENSION) was “active; positive”, the mutagenic call (Test System: AMES SALMONELLA TYPHIMURIUM, Strain/Indicator: TA98(1,8-DNP6), Metabolic Activation: NONE, Method: PREINCUBATION) was “active; positive” and the mutagenic call (Test System: AMES SALMONELLA TYPHIMURIUM, Strain/Indicator: TA98(1,8-DNP6), Metabolic Activation: NONE, Method: STANDARD PLATE) was “active; positive”. The mutagenic call (Test System: AMES SALMONELLA TYPHIMURIUM, Strain/Indicator: TA98(NR), Metabolic Activation: NONE, Method: MICROSUSPENSION) was “active; positive”, the mutagenic call (Test System: AMES SALMONELLA TYPHIMURIUM, Strain/Indicator: TA98(NR), Metabolic Activation: NONE, Method: PREINCUBATION) was “active; positive” and the mutagenic call (Test System: AMES SALMONELLA TYPHIMURIUM, Strain/Indicator: TA98(NR), Metabolic Activation: NONE, Method: STANDARD PLATE) was “active; positive”. The mutagenic call (Test System: AMES SALMONELLA TYPHIMURIUM, Strain/Indicator: TA98(NR), Metabolic Activation: RAT LIVER S-9 (15%), Method: PREINCUBATION) was “active; positive”, the mutagenic call (Test System: AMES SALMONELLA TYPHIMURIUM, Strain/Indicator: TA98(NR), Metabolic Activation: RAT LIVER S-9, 3-METHYLCHOLANTHRENE, Method: PREINCUBATION) was “active; positive” and the mutagenic call (Test System: AMES SALMONELLA TYPHIMURIUM, Strain/Indicator: TA98(NR), Metabolic Activation: RAT LIVER S-9, BETA-NAPHTHOFLAVONE (15%), Method: PREINCUBATION) was “active; positive”. For the same molecule, the mutagenic call (Test System: AMES SALMONELLA TYPHIMURIUM, Strain/Indicator: TA98(NR), Metabolic Activation: RAT LIVER S-9, PCB (15%), Method: PREINCUBATION) was “active; positive”, the mutagenic call (Test System: AMES SALMONELLA TYPHIMURIUM, Strain/Indicator: TA98(NR), Metabolic Activation: RAT LIVER S-9, PHENOBARBITAL (15%), Method: PREINCUBATION) was “active; positive” and the mutagenic call (Test System: AMES SALMONELLA TYPHIMURIUM, Strain/Indicator: TA98(NR), Metabolic Activation: RAT, LIVER, S-9, AROCLOR 1254, Method: STANDARD PLATE) was “active; positive”. The mutagenic call (Test System: AMES SALMONELLA TYPHIMURIUM, Strain/Indicator: TA98, Metabolic Activation: NONE, Method: MICROSUSPENSION) was “active; positive”, the mutagenic call [1] was “active; positive” and the mutagenic call (Test System: AMES SALMONELLA TYPHIMURIUM, Strain/Indicator: TA98, Metabolic Activation: NONE, Method: STANDARD PLATE) was “active; positive”. For the same molecule, the mutagenic call (Test System: AMES SALMONELLA TYPHIMURIUM, Strain/Indicator: TA98, Metabolic Activation: RAT, LIVER, S-9, AROCLOR 1254, Method: MICROSUSPENSION) was “active; positive”, the mutagenic call (Test System: AMES SALMONELLA TYPHIMURIUM, Strain/Indicator: TA98, Metabolic Activation: RAT, LIVER, S-9, AROCLOR 1254, Method: STANDARD PLATE) was “active; positive” and the mutagenic call (Test System: AMES SALMONELLA TYPHIMURIUM, Strain/Indicator: TA100, Metabolic Activation: NONE, Method: MICROSUSPENSION) was “active; positive”. For the same molecule, the mutagenic call [2] was “active; positive”, the mutagenic call (Test System: AMES SALMONELLA TYPHIMURIUM, Strain/Indicator: TA100, Metabolic Activation: NONE, Method: STANDARD PLATE) was “active; positive” and the mutagenic call (Test System: AMES SALMONELLA TYPHIMURIUM, Strain/Indicator: TA100, Metabolic Activation: RAT LIVER S-9, 3-METHYLCHOLANTHRENE (15%), Method: PREINCUBATION) was “active; positive”. For the same molecule, the mutagenic call (Test System: AMES SALMONELLA TYPHIMURIUM, Strain/Indicator: TA100, Metabolic Activation: RAT, LIVER, S-9, AROCLOR 1254, Method: MICROSUSPENSION) was “active; positive”, the mutagenic call (Test System: AMES SALMONELLA TYPHIMURIUM, Strain/Indicator: TA100, Metabolic Activation: RAT, LIVER, S-9, AROCLOR 1254, Method: STANDARD PLATE) was “active; positive” and the mutagenic call (Test System: AMES SALMONELLA TYPHIMURIUM, Strain/Indicator: TA1535, Metabolic Activation: NONE, Method: STANDARD PLATE) was “active; positive”. For the same molecule, the mutagenic call (Test System: AMES SALMONELLA TYPHIMURIUM, Strain/Indicator: TA1535, Metabolic Activation: RAT, LIVER, S-9, AROCLOR 1254, Method: STANDARD PLATE) was “active; positive”, the mutagenic call (Test System: AMES SALMONELLA TYPHIMURIUM, Strain/Indicator: TA1537, Metabolic Activation: NONE, Method: STANDARD PLATE) was “active; positive” and the mutagenic call (Test System: AMES SALMONELLA TYPHIMURIUM, Strain/Indicator: TA1537, Metabolic Activation: RAT, LIVER, S-9, AROCLOR 1254, Method: STANDARD PLATE) was “active; positive”. The mutagenic call (Test System: AMES SALMONELLA TYPHIMURIUM, Strain/Indicator: TA1538, Metabolic Activation: NONE, Method: STANDARD PLATE) was “active; positive”, the mutagenic call (Test System: AMES SALMONELLA TYPHIMURIUM, Strain/Indicator: TA1538, Metabolic Activation: RAT, LIVER, S-9, AROCLOR 1254, Method: STANDARD PLATE) was “active; positive” and the mutagenic call (Test System: AMES SALMONELLA TYPHIMURIUM, Strain/Indicator: TA7001, Metabolic Activation: NONE, Method: PREINCUBATION) was “inactive; negative”. For the same molecule, the mutagenic call (Test System: AMES SALMONELLA TYPHIMURIUM, Strain/Indicator: TA7001, Metabolic Activation: RAT LIVER S-9, 3-METHYLCHOLANTHRENE (15%), Method: PREINCUBATION) was “inactive; negative”, the mutagenic call (Test System: AMES SALMONELLA TYPHIMURIUM, Strain/Indicator: TA7002, Metabolic Activation: NONE, Method: PREINCUBATION) was “active; positive” and the mutagenic call (Test System: AMES SALMONELLA TYPHIMURIUM, Strain/Indicator: TA7002, Metabolic Activation: RAT LIVER S-9, 3-METHYLCHOLANTHRENE, Method: PREINCUBATION) was “active; positive”. For the same molecule, the mutagenic call (Test System: AMES SALMONELLA TYPHIMURIUM, Strain/Indicator: TA7003, Metabolic Activation: NONE, Method: PREINCUBATION) was “inactive; negative”, the mutagenic call (Test System: AMES SALMONELLA TYPHIMURIUM, Strain/Indicator: TA7003, Metabolic Activation: RAT LIVER S-9, 3-METHYLCHOLANTHRENE, Method: PREINCUBATION) was “inactive; negative” and the mutagenic call (Test System: AMES SALMONELLA TYPHIMURIUM, Strain/Indicator: TA7004, Metabolic Activation: NONE, Method: PREINCUBATION) was “active; positive”. For the same molecule, the mutagenic call (Test System: AMES SALMONELLA TYPHIMURIUM, Strain/Indicator: TA7004, Metabolic Activation: RAT LIVER S-9, 3-METHYLCHOLANTHRENE, Method: PREINCUBATION) was “active; positive”, the mutagenic call (Test System: AMES SALMONELLA TYPHIMURIUM, Strain/Indicator: TA7005, Metabolic Activation: NONE, Method: PREINCUBATION) was “active; positive” and the mutagenic call (Test System: AMES SALMONELLA TYPHIMURIUM, Strain/Indicator: TA7005, Metabolic Activation: RAT LIVER S-9, 3-METHYLCHOLANTHRENE, Method: PREINCUBATION) was “active; positive”. For the same molecule, the mutagenic call (Test System: AMES SALMONELLA TYPHIMURIUM, Strain/Indicator: TA7006, Metabolic Activation: NONE, Method: PREINCUBATION) was “active; positive” and the mutagenic call (Test System: AMES SALMONELLA TYPHIMURIUM, Strain/Indicator: TA7006, Metabolic Activation: RAT LIVER S-9, 3-METHYLCHOLANTHRENE, Method: PREINCUBATION) was “active; positive”.
With `C=C1/C(=C\C=C2/CCC[C@]3(C)[C@@H]([C@H](C)CCCC(C)(C)O)CC[C@@H]23)C[C@@H](O)C[C@@H]1O` the mutagenic call (End Point: IN VIVO CHROMOSOMAL ABERRATIONS, Test System: BONE MARROW CELLS, Species: RAT, Strain/Sex: WISTAR, Route: ORAL) was “inactive; negative”.
With `Nc1cc(S(=O)(=O)O)c2cccc(S(=O)(=O)O)c2c1` the mutagenic call [1] was “inactive; negative”, the mutagenic call (Test System: AMES SALMONELLA TYPHIMURIUM, Strain/Indicator: TA98, Metabolic Activation: RAT LIVER S-9, PHENOBARBITAL AND BETA-NAPHTHOFLAVONE, Method: PREINCUBATION) was “inactive; negative” and the mutagenic call [2] was “inactive; negative”. For the same molecule, the mutagenic call (Test System: AMES SALMONELLA TYPHIMURIUM, Strain/Indicator: TA100, Metabolic Activation: RAT LIVER S-9, PHENOBARBITAL AND BETA-NAPHTHOFLAVONE, Method: PREINCUBATION) was “inactive; negative”, the mutagenic call (Test System: AMES SALMONELLA TYPHIMURIUM, Strain/Indicator: TA1535, Metabolic Activation: NONE, Method: PREINCUBATION) was “inactive; negative” and the mutagenic call (Test System: AMES SALMONELLA TYPHIMURIUM, Strain/Indicator: TA1535, Metabolic Activation: RAT LIVER S-9, PHENOBARBITAL AND BETA-NAPHTHOFLAVONE, Method: PREINCUBATION) was “inactive; negative”. The mutagenic call (Test System: AMES SALMONELLA TYPHIMURIUM, Strain/Indicator: TA1537, Metabolic Activation: NONE, Method: PREINCUBATION) was “inactive; negative”, the mutagenic call (Test System: AMES SALMONELLA TYPHIMURIUM, Strain/Indicator: TA1537, Metabolic Activation: RAT LIVER S-9, PHENOBARBITAL AND BETA-NAPHTHOFLAVONE, Method: PREINCUBATION) was “inactive; negative” and the mutagenic call (Test System: AMES SALMONELLA TYPHIMURIUM, Strain/Indicator: TA1538, Metabolic Activation: NONE, Method: PREINCUBATION) was “inactive; negative”. For the same molecule, the mutagenic call (Test System: AMES SALMONELLA TYPHIMURIUM, Strain/Indicator: TA1538, Metabolic Activation: RAT LIVER S-9, PHENOBARBITAL AND BETA-NAPHTHOFLAVONE, Method: PREINCUBATION) was “inactive; negative”, the mutagenic call (Test System: E.COLI, Strain/Indicator: WP2UVRA, Metabolic Activation: NONE, Method: PREINCUBATION) was “inactive; negative” and the mutagenic call (Test System: E.COLI, Strain/Indicator: WP2UVRA, Metabolic Activation: RAT LIVER S-9, PHENOBARBITAL AND BETA-NAPHTHOFLAVONE, Method: PREINCUBATION) was “inactive; negative”.

From PubChem BioAssay AID1259407 (Chemical Carcinogenesis Research Information System (CCRIS), 2018)
